Assays:
HepG2 [1] = test: drug sensitivity score (DSS) for viability; higher = more toxic; extreme values may be limits of the assay; settings: 72 h
U2OS [2] = test: as above; settings: 72 h
Calu-3 [3] = test: as above; settings: 72 h
Vero E6 [4] = test: as above; settings: 72 h
Caco-2 [5] = test: as above; settings: 72 h
[6] = test system: A549-ACE2 infected with SARS-CoV-2; test: cell count relative to DMSO; higher = less toxic; settings: 24 h
[7] = test system: A549-ACE2 infected with SARS-CoV-2; test: SARS-CoV-2 infection rate relative to DMSO; higher = more infection; settings: 24 h
[8] = test system: A549-ACE2 infected with SARS-CoV-2; test: morphology score (similarity to uninfected cells); higher = more like uninfected cells; settings: 24 h
A549-ACE2 = test: drug-induced phospholipidosis relative to tamoxifen; higher = more phospholipidosis
HepG2 [9] = test: cell viability relative to DMSO; higher = less toxic; settings: 72 h
U2OS [10] = test: as above; settings: 72 h
Calu-3 [11] = test: as above; settings: 72 h
Vero E6 [12] = test: as above; settings: 72 h
Caco-2 [13] = test: as above; settings: 72 h
U2OS [14] = test: relative viability EC50 (midpoint between 100% and the lowest measured viability); higher = less toxic; settings: 72 h
Calu-3 [15] = test: as above; settings: 72 h
Caco-2 [16] = test: as above; settings: 72 h
HepG2 [17] = test: as above; settings: 72 h
Vero E6 [18] = test: as above; settings: 72 h

O=C(NCc1ccccc1)c1csc(Nc2ccncn2)n1 [thiazovivin]
Settings	drug sensitivity score	relative viability EC50 [µM]
Caco-2 [5]	0	–
Caco-2 [16]	–	> 10
Calu-3 [3]	0	–
Calu-3 [15]	–	> 10
HepG2 [1]	1.9	–
U2OS [2]	0.6	–
U2OS [14]	–	> 10
Vero E6 [4]	3.3	–

Settings	SARS-CoV-2 infection rate, [7] [%]	cell count, [6] [%]	cell viability, Caco-2 [13] [%]	cell viability, Calu-3 [11] [%]	cell viability, HepG2 [9] [%]	cell viability, U2OS [10] [%]	cell viability, Vero E6 [12] [%]	morphology score, [8]
1 nM	–	–	95.1	102	90.1	105	101	–
10 nM	–	–	96.8	95.5	97.8	100	101	–
0.1 µM	98	115	–	–	–	–	–	0.31
100 nM	–	–	97.3	109	101	100	99.1	–
0.3 µM	101	108	–	–	–	–	–	0.18
1 µM	98	90	–	–	–	–	–	0.16
1000 nM	–	–	100	126	93.8	93.9	88.7	–
3 µM	108	88	–	–	–	–	–	-0.1
10000 nM	–	–	88.4	138	73.9	85.9	64.7	–

drug-induced phospholipidosis [%], A549-ACE2
Settings	0.3 µM	0.833333 µM	3.33333 µM	6.66667 µM	10 µM	30 µM
24 h	-0.85	-1.1	-1.59	-0.13	1.72	4.97
48 h	-1.39	-3.9	-3.92	-1.45	-1.05	3.79
72 h	-0.652	-4.81	-3.84	-1.69	1.23	–

COc1ccc2c(C(=S)N(C)CC(=O)O)cccc2c1C(F)(F)F [tolrestat]
Settings	drug sensitivity score	relative viability EC50 [µM]
Caco-2 [5]	0	–
Caco-2 [16]	–	> 10
Calu-3 [3]	0	–
Calu-3 [15]	–	> 10
HepG2 [1]	0	–
HepG2 [17]	–	> 10
U2OS [2]	0	–
U2OS [14]	–	> 10
Vero E6 [4]	0	–
Vero E6 [18]	–	> 10

cell viability [%]
Settings	Caco-2 [13]	Calu-3 [11]	HepG2 [9]	U2OS [10]	Vero E6 [12]
1 nM	92.9	103	91.2	94.7	94.7
10 nM	95.8	100	98.6	98.4	95.9
100 nM	90.6	94.5	94.9	96.5	93.5
1000 nM	98.9	107	94.2	98	91.2
10000 nM	89.3	98.6	103	99.1	96.8

CN1CCc2c(c3ccccc3n2Cc2ccc(C(=O)NO)cc2)C1 [tubastatin-A]
Settings	drug sensitivity score	relative viability EC50 [µM]
Caco-2 [5]	0	–
Caco-2 [16]	–	> 10
Calu-3 [3]	1.2	–
Calu-3 [15]	–	> 10
HepG2 [1]	5	–
HepG2 [17]	–	2.02
U2OS [2]	1	–
U2OS [14]	–	> 10
Vero E6 [4]	0.6	–
Vero E6 [18]	–	> 10

cell viability [%]
Settings	Caco-2 [13]	Calu-3 [11]	HepG2 [9]	U2OS [10]	Vero E6 [12]
1 nM	97.2	108	107	102	98.7
10 nM	91.2	93.5	104	97	102
100 nM	99	99.6	90.1	99.3	101
1000 nM	93.3	89.9	90.9	89.2	102
10000 nM	88.9	81.5	36.9	84	78.3

CCOC(=O)C1=C[C@]2(CC)CCCN3CCc4c(n1c1ccccc41)[C@@H]32 [vinpocetine]
Settings	drug sensitivity score	relative viability EC50 [µM]
Caco-2 [5]	0	–
Caco-2 [16]	–	> 10
Calu-3 [3]	0	–
Calu-3 [15]	–	> 10
HepG2 [1]	0	–
HepG2 [17]	–	> 10
U2OS [2]	0	–
U2OS [14]	–	> 10
Vero E6 [4]	0	–
Vero E6 [18]	–	> 10

cell viability [%]
Settings	Caco-2 [13]	Calu-3 [11]	HepG2 [9]	U2OS [10]	Vero E6 [12]
1 nM	92	106	97.7	97.6	98.8
10 nM	96.7	95.9	94	101	87.7
100 nM	91.7	94	99.7	102	95.9
1000 nM	98.4	105	89.7	101	91.8
10000 nM	104	98.3	108	101	107

Cc1c(C)c2c(c(C)c1O)CC[C@@](C)(CCC[C@H](C)CCC[C@H](C)CCCC(C)C)O2 [vitamin-E]
Settings	drug sensitivity score	relative viability EC50 [µM]
Caco-2 [5]	0	–
Caco-2 [16]	–	> 10
Calu-3 [3]	0	–
Calu-3 [15]	–	> 10
HepG2 [1]	0	–
HepG2 [17]	–	> 10
U2OS [2]	0	–
U2OS [14]	–	> 10
Vero E6 [4]	0	–
Vero E6 [18]	–	> 10

cell viability [%]
Settings	Caco-2 [13]	Calu-3 [11]	HepG2 [9]	U2OS [10]	Vero E6 [12]
1 nM	101	98.9	93.6	99.9	86.5
10 nM	89.8	82.6	100	95.1	99.4
100 nM	97.1	102	91	103	88.5
1000 nM	94.8	99.3	106	94.9	101
10000 nM	98.5	91.7	108	97.2	103

Cc1cc(C(C)(C)C)cc(C)c1CC1=NCCN1 [xylometazoline]
Settings	drug sensitivity score	relative viability EC50 [µM]
Caco-2 [5]	0	–
Caco-2 [16]	–	> 10
Calu-3 [3]	0	–
Calu-3 [15]	–	> 10
HepG2 [1]	0	–
HepG2 [17]	–	> 10
U2OS [2]	0	–
U2OS [14]	–	> 10
Vero E6 [4]	0	–
Vero E6 [18]	–	> 10

cell viability [%]
Settings	Caco-2 [13]	Calu-3 [11]	HepG2 [9]	U2OS [10]	Vero E6 [12]
1 nM	100	98.6	107	98.5	112
10 nM	74.7	92.4	93.4	93.2	98.2
100 nM	99.8	108	89.6	102	97.3
1000 nM	97.6	92	116	97.3	112
10000 nM	105	108	101	103	89.8

CN(C)C/C=C(/c1ccc(Br)cc1)c1cccnc1 [zimelidine]
Settings	drug sensitivity score	relative viability EC50 [µM]
Caco-2 [5]	0	–
Caco-2 [16]	–	> 10
Calu-3 [3]	0	–
Calu-3 [15]	–	> 10
HepG2 [1]	0	–
HepG2 [17]	–	> 10
U2OS [2]	0	–
U2OS [14]	–	> 10
Vero E6 [4]	0	–
Vero E6 [18]	–	> 10

cell viability [%]
Settings	Caco-2 [13]	Calu-3 [11]	HepG2 [9]	U2OS [10]	Vero E6 [12]
1 nM	100	99.7	103	89.6	101
10 nM	98.9	107	97.8	97.5	100
100 nM	90.6	96.6	102	91.3	102
1000 nM	93.6	99.2	94.2	100	96.5
10000 nM	101	93	102	90.3	100
